Tested on: cortical neuron cultures
Test: Neurite outgrowth in dissociated cortical neuron cultures
Format: cell-based
Conditions: Cortical neurone; embryonic day 15 rat cortical neurons, 72 hours treatment, TUJ-1 staining, Cellomics ArrayScan ENO algorithm; read-out: EC50 in cortical neuron assays (neurite outgrowth)
Protocol: Dissociated cortical neuron cultures were prepared as previously described (Pong et al., 2001). Briefly, embryonic day 15 rat fetuses were collected and dissected in ice-cold PBS. Dissected cortices were pooled together and transferred to an enzymatic dissociation medium containing papain. After 30 minutes, the tissue was mechanically triturated with a fire-polished glass Pasteur pipette. Single-cell suspensions in complete media were seeded on poly-L-ornithine and laminin coated 96-well plates. 24 hours later, cultures were treated with various concentrations of compound for 72 hours. The cultures were then fixed and stained with an anti-tubulin primary antibody (TUJ-1) and a fluorescent-tagged secondary antibody. Neurite outgrowth was determined by using the Enhanced Neurite Outgrowth (ENO) algorithm with the Cellomics ArrayScan and expressed as average neurite length or total neurite length per cell.

Structure (SMILES) | EC50 [nM]
CC/C1=C\CC(/C(C)=C/C(C)C(C)O)OC(=O)C2CCCCN2C(=O)C(=O)C2(O)OC(CCC2C)CC2OC(C)(C)OC(CC3CC(OC(C)(C)O3)/C(C)=C/C(C)CC(C)C1O)C2C (stereo not drawn) [Example 1] | < 1000
CC/C1=C\CC(/C(C)=C/C(C)C(C)OC(C)=O)OC(=O)C2CCCCN2C(=O)C(=O)C2(O)OC(CCC2C)CC(OC(C)=O)C(C)C(OC(C)=O)CC(OC(C)=O)CC(OC(C)=O)/C(C)=C/C(C)CC(C)C1OC(C)=O (stereo not drawn) [Example 2] | < 1000
CC/C1=C\CC(/C(C)=C/C(C)C(C)OC(C)=O)OC(=O)C2CCCCN2C(=O)C(=O)C2(O)OC(CCC2C)CC(O)C(C)C(O)CC(OC(C)=O)CC(OC(C)=O)/C(C)=C/C(C)CC(C)C1OC(C)=O (stereo not drawn) [Example 3] | < 1000
CC/C1=C\CC(/C(C)=C/C(C)C(C)O)OC(=O)C2CCCCN2C(=O)C(=O)C2(O)OC(CCC2C)CC(O)C(C)C(O)CC2CC(OC(C)(C)O2)/C(C)=C/C(C)CC(C)C1O (stereo not drawn) [Example 4] | < 1000
CC/C1=C\CC(/C(C)=C/C(C)C(C)OC(C)=O)OC(=O)C2CCCCN2C(=O)C(=O)C2(O)OC(CCC2C)CC(O)C(C)C(OC(C)=O)CC(OC(C)=O)CC(OC(C)=O)/C(C)=C/C(C)CC(C)C1OC(C)=O (stereo not drawn) [Example 5] | < 1000
CC/C1=C\CC(/C(C)=C/C(C)C(C)=O)OC(=O)C2CCCCN2C(=O)C(=O)C2(O)OC(CCC2C)CC2OC(C)(C)OC(CC3CC(OC(C)(C)O3)/C(C)=C/C(C)CC(C)C1=O)C2C (stereo not drawn) [Example 6] | < 1000

Source: patent US7745457B2, “Meridamycin analogues for the treatment of neurodegenerative disorders” (Wyeth LLC, priority 2006, dated 2010)
